Assay results: publication PMC5349447, “Applying a high-throughput fluorescence polarization assay for the discovery of chemical probes blocking La:RNA interactions in vitro and in cells” (PLoS ONE, 2017)

What was measured:
[1] = tested on: SCC 22B cells; test: Cisplatin sensitization, CyQUANT, SCC 22B; type: cell-based, human; settings: SCC 22B
Protocol: To test whether compound C2.01 sensitizes cells for cisplatin, cells were treated with 0.2% DMSO alone, cisplatin at 4, 8, 16, 32 or 64 μM concentration alone or in combination with 50 μM compound C2.01. The half maximal inhibitory concentration (IC50) of cisplatin was determined by treating SCC 22B cells with increasing cisplatin (Selleckchem) concentrations or vehicle (DMSO) for 48 h (96-well format) as described recently. For this experiments 1x10^4 SCC 22B cells were plated the day before the experiment. DMSO or C2.01 was added to a final concentration of DMSO (0.05%) and C2.01 (50 μM). Six hours later the different cisplatin concentrations were added. The highest DMSO concentration of 0.25% was used in the control for cisplatin and C2.01 double treatment. Subsequently, cells were washed twice with 1x PBS and quantified after staining with fluorescence dye (CyQUANT®, Life Technologies) 48 after the initial C2.01 treatment.

[2] = tested on: SCC 22A cells; parameters: method as in PMID 27105491; settings: used as treatment concentration, read-out: cisplatin IC50; cited from earlier work
[3] = tested on: T1, La-WT:fD1-RNA complex; test: EMSA, compound competition, La-WT:fD1; type: binding, human; settings: La-WT 60 nM, fD1 50 nM
T1 construct: His; made in house; host or cells: E. coli BL21
Protocol: 12% native TBE polyacrylamide gels were prepared in a Mini-PROTEAN Tetra Handcast System (BioRad). The gel was pre-run for 30 min at 140 V in 1x TBE buffer (45 mM Tris/HCl pH 8.5, 45 mM boric acid, 1 mM EDTA). To prepare the RNA-mix, fluorescence labeled RNA oligoribonucleotides (oligos) were diluted in fluorescence polarization buffer (20 mM Tris/HCl (pH 7.4), 150 mM NaCl, 3.0 mM MgCl2, 0.5 mM EDTA, 0.05% (v/v) IGEPAL), mixed for 10 min at 80°C, and then immediately placed on ice for at least 5 min. All RNA oligos were used at a final concentration of 50 nM. Recombinant La protein was diluted in D-buffer (20 mM Tris/ HCl (pH 7.4), 150mM NaCl, 3mM MgCl2, 0.5mM EDTA, 5% glycerol) and placed on ice until use.
La titration was performed at final concentrations of 20, 40, 60, 100, 200, 300, 400, 500, 600 nM La. Three different La concentrations were used for compound studies: 60 nM for fD1 RNA, 200 nM for fPolyU RNA, and 150 nM for TOPf RNA studies. Two μl of diluted compound (diluted in 100% DMSO) or 2 μl 100% DMSO (control reaction) was combined with 8 μl La-mix in a 96-well plate. 10 μl RNA-mix was added, mixed for 2 min, and incubated for 10 min at RT in the dark. Final concentrations in the reaction: 18 mM Tris/HCl (pH 7.4), 135 mM NaCl, 2.7 mM MgCl2, 0.45 mM EDTA, 0.025% (v/v) IGEPAL, 2% glycerol, 10% DMSO). Samples were loaded onto the pre-run gel without any loading buffer. Gels were run at 160 V for 40 min in the dark. The gels were carefully transferred to a clear plastic wrap and scanned using a Typhoon FLA900 imager. The La-RNA complex (La-RNP) formation was quantified using the ImageQuant TL software.
Next we used our established EMSA to test whether compound C2 and C6 can compete against the three RNA oligos: fD1, fPolyU, and TOPf. All of the EMSA reactions were loaded in the following order: lane 1 contains the RNA oligo alone; lane 2 contains the RNA oligo plus La protein at concentration that shifts 50% of the RNA oligo (positive control); lanes 3–9 contain the RNA oligo, La protein and decreasing concentrations of the compound; and lane 10 contains the RNA oligo and the highest compound concentration (negative control).

[4] = tested on: SCC 22B cells; test: Cell toxicity, CyQUANT cell number, SCC 22B; type: cell-based, human; settings: for effect on SCC 22B cell numbers: 48 h, 12.5-150 μM
Protocol: (§1) Normal fibroblast MRC5 and human embryonic kidney HEK293 cells were purchased from ATCC. Head and neck squamous cell carcinoma cell lines UM-SCC 22A (SCC 22A) and UM-SCC 22B (SCC 22B) were described elsewhere. MRC5 cells were cultured in EMEM plus 10% FBS; SCC 22A, SCC 22B, and HEK293 cells were cultured in advanced DMEM (Gibco) containing 2 mM L-glutamine (Life Technology) and 10% FBS. All cell lines were tested for mycoplasma contamination by applying a MycoSensor PCR Assay kit according to the manufacturer’s instructions (Agilent Technologies).
(§2) To test for cell toxicity the compounds were dissolved in 100% DMSO to a concentration of 100 mM. Subsequently, compounds were diluted in media to 10 mM (10% DMSO), 1 mM (1% DMSO) and tested at 150, 125, 100, 75, 50, 25 μM in SCC 22B and MRC5 cells. To reach this concentration compounds (stock 1 mM, 1% DMSO) were diluted in the cell culture dish (96-well format, 100 μl final volume) as follows: 150 μM = 6.7 fold (final DMSO: 0.15%); 125 μM = 8.0 fold (final DMSO: 0.125%); 100 μM = 10 fold (final DMSO: 0.1%); 75 μM = 13.3 fold (final DMSO: 0.075%); 50 μM = 20 fold (final DMSO: 0.05%); and 25 μM = 40 fold (final DMSO: 0.025%). As a control the highest DMSO concentration of 0.15% was used. Cells were cultured in appropriate media (see above) for 48h. Subsequently, cells were washed twice with 1x PBS and quantified after staining with fluorescence dye (CyQUANT®, Life Technologies). For this experiments 3x10^4 of MRC5 and 1x10^4 SCC 22B cells were plate the day before the experiment.

[5] = tested on: MRC5 cells; test: Cell toxicity, CyQUANT cell number, MRC5; type: cell-based, human; settings: 48 h, up to 150 μM
Protocol: as §1, §2

[6] = target: T2, La-WT (La autoantigen, LARP3) (human, UniProt P05455 1-408); test: EMSA; EMSA: about 20 mM Tris-HCl pH 7.4, 150 mM NaCl, 3 mM MgCl2, 0.5 mM EDTA, IGEPAL, glycerol, 50 nM RNA, RT 10 min (with compounds: 18 mM Tris, 135 mM NaCl, 2.7 mM MgCl2, 0.45 mM EDTA, 0.025% IGEPAL, 2% glycerol, 10% DMSO); FP: 20 mM Tris-HCl pH 7.5, 3 mM MgCl2, 0.5 mM EDTA, 150 mM NaCl, 0.05% IGEPAL, 100 ug/ml BGG, RT 15 min; settings: protein: recombinant, tags: His
T2 sequence: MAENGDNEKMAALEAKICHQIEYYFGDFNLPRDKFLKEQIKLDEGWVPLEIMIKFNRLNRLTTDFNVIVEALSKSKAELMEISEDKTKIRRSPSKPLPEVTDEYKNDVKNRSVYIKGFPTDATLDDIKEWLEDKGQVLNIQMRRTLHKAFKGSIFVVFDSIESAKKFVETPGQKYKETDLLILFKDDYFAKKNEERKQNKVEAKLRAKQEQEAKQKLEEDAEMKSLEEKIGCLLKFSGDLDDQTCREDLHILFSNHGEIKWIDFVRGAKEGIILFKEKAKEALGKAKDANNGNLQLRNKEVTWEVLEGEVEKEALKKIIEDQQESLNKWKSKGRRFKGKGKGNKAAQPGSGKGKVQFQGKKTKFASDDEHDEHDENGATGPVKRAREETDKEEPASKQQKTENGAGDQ

[7] = target: T3, La-RRM1+2 (human, UniProt P05455 111-348); test: as above; settings: protein: recombinant, tags: His
T3 sequence: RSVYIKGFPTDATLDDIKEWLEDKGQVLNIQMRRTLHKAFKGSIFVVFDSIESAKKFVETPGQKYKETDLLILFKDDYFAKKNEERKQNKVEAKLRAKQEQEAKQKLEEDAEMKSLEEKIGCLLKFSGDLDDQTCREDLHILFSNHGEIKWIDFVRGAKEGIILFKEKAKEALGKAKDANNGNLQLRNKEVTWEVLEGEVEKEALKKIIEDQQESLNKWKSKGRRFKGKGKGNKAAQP

[8] = target: T2, La-WT (La autoantigen, LARP3); test: competition; EMSA vs TOPf; EMSA: about 20 mM Tris-HCl pH 7.4, 150 mM NaCl, 3 mM MgCl2, 0.5 mM EDTA, IGEPAL, glycerol, 50 nM RNA, RT 10 min (with compounds: 18 mM Tris, 135 mM NaCl, 2.7 mM MgCl2, 0.45 mM EDTA, 0.025% IGEPAL, 2% glycerol, 10% DMSO); FP: 20 mM Tris-HCl pH 7.5, 3 mM MgCl2, 0.5 mM EDTA, 150 mM NaCl, 0.05% IGEPAL, 100 ug/ml BGG, RT 15 min; settings: protein: recombinant; tags: His; label: none

N.N.[Cl][Pt][Cl] [cisplatin]
IC50 ([1]; pretreatment with 50 μM C2.01, 48 hours): 18000 nM
IC50 ([1]; vehicle (DMSO) pretreatment, 48 hours): 32000 nM
IC50 [2]: 12000 nM

CCCCOC(=O)c1ccc2c(c1)C1C=CCC1C(C(=O)O)N2 (centres unmarked) [C6.02, 8-(butoxycarbonyl)-3a,4,5,9b-tetrahydro-3H-cyclopenta[c]quinoline-4-carboxylic acid]
competition for La:fD1 interaction (EMSA), in words [3]: slightly lower concentrations than C6.00
effect on SCC 22B cell numbers [4]: reduced SCC 22B cell numbers even at low concentrations
toxic effect on MRC5 cells (normal fibroblasts) [5]: toxic effect

O=C(O)c1ccccc1C(=O)c1ccc2ccccc2c1O [C2.02, 2-(1-hydroxy-2-naphthoyl)benzoic acid]
competition for La:fD1 interaction (EMSA), in words [3]: lower concentration
effect on SCC 22B cell numbers [4]: no effect
toxic effect on MRC5 cells (normal fibroblasts) [5]: toxic effect

CC(C)COC(=O)c1ccc2c(c1)C1C=CCC1C(C(=O)O)N2 (centres unmarked) [C6.01, 8-(isobutoxycarbonyl)-3a,4,5,9b-tetrahydro-3H-cyclopenta[c]quinoline-4-carboxylic acid]
competition for La:fD1 interaction (EMSA), in words [3]: slightly lower concentrations than C6.00
effect on SCC 22B cell numbers [4]: reduced SCC 22B cell numbers even at low concentrations
selectivity: cancer cell numbers compared to effect on normal MRC5 cells ([4]; SCC 22B versus MRC5, 48 h): preferentially reduced cancer cell numbers
toxic effect on MRC5 cells (normal fibroblasts) [5]: toxic effect

GCUGCCCAGGAAGAGCCCCAGCCAUGGAACACCAGCUCCUGUGCUGC (structured_RNA) [fD1]
Kd ([6]; hairpin (mfold prediction)): 85 ± 7.5 nM
Kd ([7]; hairpin (mfold prediction)): 81.7 ± 12.6 nM

GGCCCUUUUCCCACCCCCUAGCGCCGCUGGGCCU (ssRNA) [TOP-mu2]
binding result [8]: binds

CCCUUUUCCCACCCCCUAGCGCCGCUGGGCCU (structured_RNA) [TOPf]
Kd ([6]; mfold predicted structure): 147 ± 35.1 nM

CCCUUUUCCCACCCCCUAGCGCCGCUGGGCCU (structured_RNA, 5' m7G cap) [capTOPf]
Kd [6]: 183 ± 15.3 nM

UGCUGUUUU (ssRNA) [fPolyU]
Kd ([6]; no structure predicted): 138 ± 12.6 nM
binding result ([7]; no structure predicted): no binding
